{"source": "patent US11135224B2", "about": "“Methods of sensitizing estrogen receptor positive (ER+) breast cancer cells to endocrine therapy” (New York University, priority 2018, dated 2021)", "key": {"p38, JNK1, and RSKs": {"system": "p38, JNK1, and RSKs", "conditions": "at 10 μM; cited from earlier work"}, "[1]": {"system": "ATF2 phosphorylation at Thr69/71 (target of RSK, JNK1, p38 MAPK) and eIF4B S422 (target of RSKs)", "experiment": "Immunoblot of ATF2 and eIF4B phosphorylation in TamR cells", "type": "cell-based, human", "conditions": "10 μM for 6 hours", "method": "(§1) Hsp70 (loading control). […] Cells were treated with DMSO, 1 μM 4-OH Tam, 4-OH Tam and CGP 57380 (10 μM), or 1 μM 4-OH Tam, CGP57380, and 20 nM RAD001 therapies 24 hours after plating. Treatment was changed every 72 hours. Colonies were scored after 10 days counting only >50 cells/colony. Results are representative of three independent experiments. SEM is shown. […] Results from three independent experiments. Error bars represent SEM (n.s.=not significant). […] Equal amounts of RNA were resolved by sucrose gradient centrifugation and ribosome profiles monitored by UV absorbance 254 nm. Results are representative images of two independent experiments.\nImmunoblot Studies: In brief, cells were lysed in NP-40 buffer (50 mM HEPES, pH 7.0, 150 mM NaCl, 2 mM EDTA, 25 mM NaF, 25 mM β-glycerophosphate, 2 mM Na3VO4, 1% IGEPAL, and Complete Mini protease inhibitor cocktail tablet+/−EDTA; Roche) or RIPA lysis buffer (1% Triton X-100, 1% sodium deoxycholate, 0.1% SDS, 150 mM NaCl, 50 mM Tris, pH 7.4, 2 mM Na3VO4, 25 mM β-glycerophosphate, 15 mM NaF, and complete protease inhibitor mix; Roche) and lysate cleared by centrifugation at 13,000 rpm for 10 minutes at 4° C. Lysate protein concentration was determined for each sample using BCA assay. […] Quantitation was performed by determination of the integrated density of the bands using ImageJ software. […]"}, "[2]": {"system": "global protein synthesis in TamS and TamR cells", "experiment": "[35S]-methionine metabolic labeling, overall protein synthesis", "type": "cell-based, human", "conditions": "10 μM for 24 hours, [35S]-methionine labeling 30 minutes", "method": "as §1\n^35S-Methionine Metabolic Protein Labeling: Global protein synthesis was measured as previously described (Ramirez-Valle et al., “eIF4GI Links Nutrient Sensing by mTOR to Cell Proliferation and Inhibition of Autophagy,” J. Cell Biol. 181(2):293-307 (2008), which is incorporated herein by reference in its entirety). Cells (2×10^5) were seeded, in triplicate, into 6-well culture plates and allowed to adhere for 48-72 hours. Cells were labeled with 25 μCi ^355-methionine/cysteine protein labeling mix (PerkinElmer) for 30 minutes at 37° C. using DMEM without L-Methionine or L-Cysteine supplemented with 5% FBS. […] Protein concentration was measured by the BCA assay (Thermo Scientific). […]"}}}
{"smiles": "Nc1ncnc2n[nH]c(Nc3ccc(F)cc3)c12", "note": "[CGP57380]", "values": [{"measurement": "inhibitory activity on other families of related kinases (p38, JNK1, and RSKs)", "setting": "p38, JNK1, and RSKs", "result": "no inhibitory activity"}, {"measurement": "phosphorylation of ATF2 Thr69/71 and eIF4B S422", "setting": "[1]", "result": "no change in phosphorylation"}, {"measurement": "reduction in global protein synthesis", "setting": "[2]", "result": 10, "unit": "%"}]}
